Assay results from ChEMBL document CHEMBL4321854, “Discovery of a First-in-Class Mitogen-Activated Protein Kinase Kinase 1/2 Degrader” (J Med Chem, 2019).
The source made the active and inactive calls. The rule behind the calls is not given here.

Key:
[1] = molecular target: T1, von Hippel-Lindau disease tumor suppressor/Dual specificity mitogen-activated protein kinase kinase 2 (Homo sapiens) (UniProt P36507+P40337); assay: (§1) Protac activity against VHL/MEK2 in human COLO205 cells harboring BRAF V600E variant assessed as degradation of MEK2 after 24 hrs by Western blot analysis; assay type: cell-based
T1 sequence (P36507 whole entry, looked up): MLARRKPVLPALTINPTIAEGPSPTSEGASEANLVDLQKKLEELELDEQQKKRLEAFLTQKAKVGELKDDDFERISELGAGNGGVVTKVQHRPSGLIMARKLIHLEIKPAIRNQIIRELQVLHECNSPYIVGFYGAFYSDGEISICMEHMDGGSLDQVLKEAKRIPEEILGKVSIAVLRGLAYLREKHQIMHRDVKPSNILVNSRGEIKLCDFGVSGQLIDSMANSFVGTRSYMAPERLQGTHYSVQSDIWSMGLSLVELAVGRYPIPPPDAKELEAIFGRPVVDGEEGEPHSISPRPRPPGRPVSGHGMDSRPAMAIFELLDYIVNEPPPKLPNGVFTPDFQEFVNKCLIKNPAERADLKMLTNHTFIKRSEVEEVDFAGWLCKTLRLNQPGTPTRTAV
T1 sequence (P40337 whole entry, looked up): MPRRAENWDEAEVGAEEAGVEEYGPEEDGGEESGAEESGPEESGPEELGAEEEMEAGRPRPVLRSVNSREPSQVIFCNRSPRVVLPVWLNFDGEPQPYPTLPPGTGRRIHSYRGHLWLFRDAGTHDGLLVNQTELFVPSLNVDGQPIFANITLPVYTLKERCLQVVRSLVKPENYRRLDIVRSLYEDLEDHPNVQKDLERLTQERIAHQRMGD

[2] = molecular target: von Hippel-Lindau disease tumor suppressor/Dual specificity mitogen-activated protein kinase kinase 2 (Homo sapiens, UniProt P36507+P40337, V600E); assay: as §1; assay type: cell-based
Sequence of von Hippel-Lindau disease tumor suppressor/Dual specificity mitogen-activated protein kinase kinase 2 (P36507 whole entry, looked up, stated change not applied): as the sequence (P36507 whole entry, looked up) above
Sequence of von Hippel-Lindau disease tumor suppressor/Dual specificity mitogen-activated protein kinase kinase 2 (P40337 whole entry, looked up, stated change not applied): as the sequence (P40337 whole entry, looked up) above

[3] = molecular target: T1, von Hippel-Lindau disease tumor suppressor/Dual specificity mitogen-activated protein kinase kinase 2 (Homo sapiens); assay: Protac activity against VHL/MEK2 in human HT-29 cells harboring with BRAF V600E variant assessed as degradation of MEK2 at 3 to 5 uM after 24 hrs by Western blot analysis; assay type: cell-based
[4] = molecular target: T2, von Hippel-Lindau disease tumor suppressor/Dual specificity mitogen-activated protein kinase kinase 2/Dual specificity mitogen-activated protein kinase kinase 1 (Homo sapiens) (UniProt P36507+Q02750+P40337); assay: Protac activity against VHL/MEK1/2 in human HT-29 cells harboring with BRAF V600E variant assessed as reduction in phosphorylation of MEK at S218/222 residues at 0.1 to 0.3 after >= 2 hrs by Western blot analysis; assay type: cell-based
T2 sequence (P36507 whole entry, looked up): as the sequence (P36507 whole entry, looked up) above
T2 sequence (P40337 whole entry, looked up): as the sequence (P40337 whole entry, looked up) above
T2 sequence (Q02750 whole entry, looked up): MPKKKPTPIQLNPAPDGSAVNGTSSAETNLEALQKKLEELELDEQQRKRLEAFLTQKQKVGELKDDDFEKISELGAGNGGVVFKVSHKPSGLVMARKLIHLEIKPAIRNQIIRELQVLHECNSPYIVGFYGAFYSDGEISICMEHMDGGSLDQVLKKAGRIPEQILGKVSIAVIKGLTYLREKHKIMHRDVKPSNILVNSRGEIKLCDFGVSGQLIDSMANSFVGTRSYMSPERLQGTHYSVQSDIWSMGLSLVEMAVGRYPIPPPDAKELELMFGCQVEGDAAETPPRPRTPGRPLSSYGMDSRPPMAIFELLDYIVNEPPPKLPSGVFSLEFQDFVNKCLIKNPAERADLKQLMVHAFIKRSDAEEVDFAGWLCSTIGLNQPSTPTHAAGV

[5] = molecular target: T1, von Hippel-Lindau disease tumor suppressor/Dual specificity mitogen-activated protein kinase kinase 2 (Homo sapiens); assay: Protac activity against VHL/MEK2 in human HT-29 cells harboring with BRAF V600E variant assessed as degradation of MEK2 at 0.3 uM after 3 to 144 hrs by Western blot analysis; assay type: cell-based
[6] = molecular target: T2, von Hippel-Lindau disease tumor suppressor/Dual specificity mitogen-activated protein kinase kinase 2/Dual specificity mitogen-activated protein kinase kinase 1 (Homo sapiens); assay: Protac activity against VHL/MEK1/2 in human HT-29 cells harboring with BRAF V600E variant assessed as phosphorylation of MEK at S218/222 residues at 0.3 uM pretreated with MEK1/2 inhibitor, PD0325901 for 2 hrs followed by incubation with compound for 2 hrs by Western blot analysis; assay type: cell-based
[7] = molecular target: T1, von Hippel-Lindau disease tumor suppressor/Dual specificity mitogen-activated protein kinase kinase 2 (Homo sapiens); assay: Protac activity against VHL/MEK2 in human SK-MEL-28 cells harboring with BRAF V600E variant assessed as degradation of MEK2 by measuring MEK2 protein level at 0.3 uM pretreated with proteasome inhibitor, MG-132 for 2 hrs followed by incubation with compound for 10 hrs by Western blot analysis; assay type: cell-based
[8] = molecular target: T2, von Hippel-Lindau disease tumor suppressor/Dual specificity mitogen-activated protein kinase kinase 2/Dual specificity mitogen-activated protein kinase kinase 1 (Homo sapiens); assay: Protac activity against VHL/MEK1/2 in human SK-MEL-28 cells harboring with BRAF V600E variant assessed as phosphorylation of MEK at S218/222 residues at 0.3 uM pretreated with NEDD8-activating enzyme inhibitor, MLN4924 for 2 hrs followed by incubation with compound for 10 hrs by Western blot analysis; assay type: cell-based
[9] = Plasma concentration in Swiss albino mouse at 50 mg/kg, ip measured after 8 hrs by LC-MS/MS analysis; assay type: ADME, organism-based
[10] = molecular target: T1, von Hippel-Lindau disease tumor suppressor/Dual specificity mitogen-activated protein kinase kinase 2 (Homo sapiens); assay: Protac activity against VHL/MEK2 in human SK-MEL-28 cells harboring with BRAF V600E variant assessed as degradation of MEK2 at 0.1 to 0.3 uM by Western blot analysis; assay type: cell-based; settings: TDE = time-dependent effect

**Q.** With `Cc1ncsc1-c1ccc([C@H](C)NC(=O)[C@@H]2C[C@@H](O)CN2C(=O)[C@@H](NC(=O)CCCCCCCCCCNCCCONC(=O)c2ccc(F)c(F)c2Nc2ccc(I)cc2F)C(C)(C)C)cc1` as the compound, how does the Activity [1] read?
**A.** Dose-dependent effect

**Q.** What about the DC50 [2] of the same compound?
**A.** 11 nM

**Q.** And the Activity [3]?
**A.** Active

**Q.** What about the Activity [4] of the same compound?
**A.** Active

**Q.** What about the Activity [5] of the same compound?
**A.** Active

**Q.** What about the Activity [6] of the same compound?
**A.** inactive

**Q.** And the Activity [7]?
**A.** inactive

**Q.** What about the Activity [8] of the same compound?
**A.** inactive

**Q.** And the concentration at 8 h [9]?
**A.** 710 nM

**Q.** What about the Activity [10] of the same compound?
**A.** Tde
